This note sets out measurements from US12275731B2, “Azaindole inhibitors of wild-type and mutant forms of LRRK2” (DANA-FARBER CANCER INSTITUTE, INC., priority 2018, dated 2025).

Holding throughout (assay): KinomeScan profiling
Format in all cases: binding

In experiment [1] the target is T1, JAK1(JH2domain-pseudokinase) (Homo sapiens, UniProt P23458).
T1 construct: JAK1(JH2domain-pseudokinase); purchased KinomeScan®
Particulars: read-out: % control. In outline:
(§1)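 Single-point competition binding screen: 1 μM, DMSO, 468 kinases. Results reported as % control from RLU, normalised to DMSO and positive-control wells. Activity threshold: <35% control.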

For a further experiment, the target named is MET (Homo sapiens, UniProt P08581). As to conditions: read-out: % control. Put shortly:
as §1

A further experiment has as its target CDK4-cyclinD3 (Homo sapiens, UniProt P11802). Particulars: CDK4-cyclinD3, 1 μM; read-out: % control. Put shortly: as §1
Another experiment has as its target MAP4K4 (Homo sapiens, UniProt O95819). Particulars: MAP4K4, 1 μM; read-out: % control. In outline: as §1
Another experiment has as its target CLK3 (Homo sapiens, UniProt P49761). Particulars: CLK3, 1 μM; read-out: % control. In outline: as §1
The next experiment addresses T2, PIP5K2B (Homo sapiens, UniProt P78356).
T2 construct: purchased KinomeScan® (panel service)
T2 sequence (P78356 1-416): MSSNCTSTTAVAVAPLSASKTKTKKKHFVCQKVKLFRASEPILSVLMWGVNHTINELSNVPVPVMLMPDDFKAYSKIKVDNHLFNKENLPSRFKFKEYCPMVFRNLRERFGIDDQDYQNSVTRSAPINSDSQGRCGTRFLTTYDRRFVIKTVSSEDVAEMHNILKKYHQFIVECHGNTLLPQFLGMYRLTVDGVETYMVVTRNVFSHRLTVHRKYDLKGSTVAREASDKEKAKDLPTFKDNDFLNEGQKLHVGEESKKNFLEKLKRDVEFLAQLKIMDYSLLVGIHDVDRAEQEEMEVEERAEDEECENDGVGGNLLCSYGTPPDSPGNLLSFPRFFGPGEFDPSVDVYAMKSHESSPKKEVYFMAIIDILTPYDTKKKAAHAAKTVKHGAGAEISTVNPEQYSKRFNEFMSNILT
Particulars: read-out: % control. In outline: as §1

In the next experiment the target is T3, GRK1 (Homo sapiens, UniProt Q15835).
T3 sequence (Q15835 1-563): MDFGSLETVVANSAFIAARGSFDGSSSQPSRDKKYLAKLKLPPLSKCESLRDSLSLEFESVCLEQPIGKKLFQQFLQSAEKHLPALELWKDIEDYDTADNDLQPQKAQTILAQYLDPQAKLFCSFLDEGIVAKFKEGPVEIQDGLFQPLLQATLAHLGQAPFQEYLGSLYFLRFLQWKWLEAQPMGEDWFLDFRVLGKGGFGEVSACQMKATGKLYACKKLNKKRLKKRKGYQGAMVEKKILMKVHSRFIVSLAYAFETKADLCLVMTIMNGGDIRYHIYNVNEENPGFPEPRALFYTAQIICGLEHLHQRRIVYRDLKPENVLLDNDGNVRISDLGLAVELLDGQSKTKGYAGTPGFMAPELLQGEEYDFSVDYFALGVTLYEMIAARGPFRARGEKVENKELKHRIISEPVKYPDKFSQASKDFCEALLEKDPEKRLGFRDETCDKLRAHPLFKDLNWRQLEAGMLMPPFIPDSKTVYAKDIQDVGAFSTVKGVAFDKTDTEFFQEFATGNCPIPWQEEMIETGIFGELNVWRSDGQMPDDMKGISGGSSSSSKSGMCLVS
Particulars: GRK1, 1 μM; read-out: % control. In outline:
as §1

Another experiment addresses BRK (Homo sapiens, UniProt Q13882). As to conditions: read-out: % control. Put shortly:
as §1

The target of a further experiment is T4, BMPR2 (Homo sapiens, UniProt Q13873).
T4 construct: purchased KinomeScan®
T4 sequence (Q13873 27-1038): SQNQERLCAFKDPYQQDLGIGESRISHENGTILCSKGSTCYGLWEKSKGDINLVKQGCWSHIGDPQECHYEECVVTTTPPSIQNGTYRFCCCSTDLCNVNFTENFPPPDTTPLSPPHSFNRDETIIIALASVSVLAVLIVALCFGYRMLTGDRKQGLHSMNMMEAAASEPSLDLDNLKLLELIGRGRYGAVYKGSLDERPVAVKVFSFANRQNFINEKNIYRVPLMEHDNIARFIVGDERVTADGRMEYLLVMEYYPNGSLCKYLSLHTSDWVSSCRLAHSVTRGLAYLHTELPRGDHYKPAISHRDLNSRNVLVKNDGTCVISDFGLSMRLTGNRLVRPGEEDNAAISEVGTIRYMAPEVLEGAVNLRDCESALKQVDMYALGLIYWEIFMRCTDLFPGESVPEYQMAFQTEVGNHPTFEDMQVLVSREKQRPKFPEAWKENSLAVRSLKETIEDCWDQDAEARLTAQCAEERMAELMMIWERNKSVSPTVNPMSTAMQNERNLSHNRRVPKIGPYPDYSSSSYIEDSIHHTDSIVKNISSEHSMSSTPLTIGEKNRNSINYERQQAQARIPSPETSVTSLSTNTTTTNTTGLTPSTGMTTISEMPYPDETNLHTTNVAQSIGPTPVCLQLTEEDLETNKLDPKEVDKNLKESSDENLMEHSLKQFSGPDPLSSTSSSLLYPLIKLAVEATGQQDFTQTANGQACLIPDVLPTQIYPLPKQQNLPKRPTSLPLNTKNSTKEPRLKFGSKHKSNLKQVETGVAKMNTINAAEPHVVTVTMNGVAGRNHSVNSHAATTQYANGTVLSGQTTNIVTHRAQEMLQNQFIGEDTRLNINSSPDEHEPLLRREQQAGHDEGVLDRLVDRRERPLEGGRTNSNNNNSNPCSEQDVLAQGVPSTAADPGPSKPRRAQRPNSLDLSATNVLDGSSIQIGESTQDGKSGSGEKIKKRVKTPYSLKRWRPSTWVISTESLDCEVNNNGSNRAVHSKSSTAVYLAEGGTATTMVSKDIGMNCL
Particulars: BMPR2, 1 μM; read-out: % control. In outline: as §1

For a further experiment, the target named is MEK2 (Homo sapiens, UniProt P36507). Particulars: MEK2, 1 μM; read-out: % control. Put shortly: as §1

SMILES strings stand for the structures.

Chain of MAP4K4 (O95819 whole entry): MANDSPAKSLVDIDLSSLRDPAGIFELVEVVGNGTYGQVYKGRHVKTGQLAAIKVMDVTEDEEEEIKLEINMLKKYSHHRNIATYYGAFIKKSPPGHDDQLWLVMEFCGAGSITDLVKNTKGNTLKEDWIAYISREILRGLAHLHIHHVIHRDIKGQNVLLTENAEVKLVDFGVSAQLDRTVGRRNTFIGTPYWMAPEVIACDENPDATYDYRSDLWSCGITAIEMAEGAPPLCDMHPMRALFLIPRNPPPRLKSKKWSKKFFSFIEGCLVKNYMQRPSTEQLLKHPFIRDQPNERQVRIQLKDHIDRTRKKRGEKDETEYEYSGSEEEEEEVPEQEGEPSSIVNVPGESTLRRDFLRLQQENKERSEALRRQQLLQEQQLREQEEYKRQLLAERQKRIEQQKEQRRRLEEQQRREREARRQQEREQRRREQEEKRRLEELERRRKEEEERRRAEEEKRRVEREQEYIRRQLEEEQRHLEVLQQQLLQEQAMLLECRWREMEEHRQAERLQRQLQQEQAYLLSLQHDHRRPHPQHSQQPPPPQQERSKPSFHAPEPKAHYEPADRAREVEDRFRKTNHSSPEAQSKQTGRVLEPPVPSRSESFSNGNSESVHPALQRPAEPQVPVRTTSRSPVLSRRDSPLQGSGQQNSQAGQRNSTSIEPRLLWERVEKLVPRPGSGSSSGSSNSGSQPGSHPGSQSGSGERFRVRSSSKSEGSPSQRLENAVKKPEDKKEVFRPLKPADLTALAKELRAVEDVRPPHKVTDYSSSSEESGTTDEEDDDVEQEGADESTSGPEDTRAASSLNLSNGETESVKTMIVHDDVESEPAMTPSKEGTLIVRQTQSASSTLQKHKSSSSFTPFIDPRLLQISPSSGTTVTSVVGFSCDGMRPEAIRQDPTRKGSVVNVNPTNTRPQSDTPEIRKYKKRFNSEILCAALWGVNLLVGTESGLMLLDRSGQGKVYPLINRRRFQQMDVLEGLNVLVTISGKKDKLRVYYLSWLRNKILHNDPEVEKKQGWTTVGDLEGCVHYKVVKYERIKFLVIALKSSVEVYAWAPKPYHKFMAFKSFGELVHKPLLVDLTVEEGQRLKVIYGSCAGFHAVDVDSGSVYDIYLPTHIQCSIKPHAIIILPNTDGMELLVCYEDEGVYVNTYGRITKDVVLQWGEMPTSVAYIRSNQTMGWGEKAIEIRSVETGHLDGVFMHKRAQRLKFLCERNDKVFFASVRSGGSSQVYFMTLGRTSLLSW
Chain of BRK (Q13882 whole entry): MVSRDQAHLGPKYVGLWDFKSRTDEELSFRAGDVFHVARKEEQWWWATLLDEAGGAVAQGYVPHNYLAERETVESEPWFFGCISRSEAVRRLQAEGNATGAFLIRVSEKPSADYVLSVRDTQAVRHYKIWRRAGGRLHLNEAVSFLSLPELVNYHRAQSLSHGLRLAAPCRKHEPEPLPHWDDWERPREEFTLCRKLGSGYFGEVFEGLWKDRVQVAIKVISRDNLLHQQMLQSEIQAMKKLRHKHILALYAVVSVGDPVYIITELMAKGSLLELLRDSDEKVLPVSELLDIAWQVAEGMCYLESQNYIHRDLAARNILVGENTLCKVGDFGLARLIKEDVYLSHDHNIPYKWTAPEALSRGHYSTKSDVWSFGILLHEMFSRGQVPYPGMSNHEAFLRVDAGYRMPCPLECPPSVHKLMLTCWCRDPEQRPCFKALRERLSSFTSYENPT
Chain of CLK3 (P49761 whole entry): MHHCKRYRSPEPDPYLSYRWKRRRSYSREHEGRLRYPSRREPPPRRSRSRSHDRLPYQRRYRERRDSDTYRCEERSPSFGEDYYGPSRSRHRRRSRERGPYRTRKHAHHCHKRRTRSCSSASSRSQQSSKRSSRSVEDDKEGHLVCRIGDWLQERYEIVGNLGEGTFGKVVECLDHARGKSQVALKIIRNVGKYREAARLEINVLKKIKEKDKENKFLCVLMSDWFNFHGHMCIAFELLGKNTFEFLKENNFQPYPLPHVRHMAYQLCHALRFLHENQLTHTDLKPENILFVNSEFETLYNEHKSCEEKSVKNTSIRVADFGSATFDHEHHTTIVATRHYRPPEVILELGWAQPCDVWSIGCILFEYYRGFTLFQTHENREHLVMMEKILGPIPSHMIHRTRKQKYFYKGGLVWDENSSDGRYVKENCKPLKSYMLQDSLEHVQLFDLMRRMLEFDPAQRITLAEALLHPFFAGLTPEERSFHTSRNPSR
T1 sequence (P23458 583-855 limits assumed): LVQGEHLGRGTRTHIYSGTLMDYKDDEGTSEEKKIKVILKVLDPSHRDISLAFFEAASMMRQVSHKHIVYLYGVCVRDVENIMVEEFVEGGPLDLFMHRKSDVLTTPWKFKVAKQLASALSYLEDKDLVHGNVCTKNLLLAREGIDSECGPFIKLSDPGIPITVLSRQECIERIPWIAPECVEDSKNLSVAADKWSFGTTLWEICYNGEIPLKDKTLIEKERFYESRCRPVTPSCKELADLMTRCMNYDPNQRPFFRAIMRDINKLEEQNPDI
Chain of MEK2 (P36507 whole entry): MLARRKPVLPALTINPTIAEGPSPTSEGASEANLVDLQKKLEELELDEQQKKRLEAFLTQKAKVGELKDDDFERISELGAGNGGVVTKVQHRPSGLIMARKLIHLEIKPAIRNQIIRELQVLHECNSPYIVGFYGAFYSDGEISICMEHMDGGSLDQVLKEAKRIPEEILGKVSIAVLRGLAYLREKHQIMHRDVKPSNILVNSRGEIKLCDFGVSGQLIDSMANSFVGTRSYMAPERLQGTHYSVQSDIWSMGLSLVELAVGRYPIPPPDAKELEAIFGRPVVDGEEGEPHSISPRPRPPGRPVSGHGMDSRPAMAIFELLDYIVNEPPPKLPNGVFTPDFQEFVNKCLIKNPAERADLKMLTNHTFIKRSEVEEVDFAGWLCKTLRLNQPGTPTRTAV
Chain of CDK4-cyclinD3 (P11802 whole entry): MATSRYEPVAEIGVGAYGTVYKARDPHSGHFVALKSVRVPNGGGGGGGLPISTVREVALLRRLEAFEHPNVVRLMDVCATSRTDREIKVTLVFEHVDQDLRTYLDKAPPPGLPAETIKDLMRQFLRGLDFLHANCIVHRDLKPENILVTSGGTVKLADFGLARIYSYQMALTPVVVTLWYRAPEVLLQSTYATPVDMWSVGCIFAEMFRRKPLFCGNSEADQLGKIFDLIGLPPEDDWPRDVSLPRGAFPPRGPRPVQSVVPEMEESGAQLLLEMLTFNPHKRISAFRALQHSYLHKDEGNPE
Chain of CDK4-cyclinD3 (P30281 whole entry partner): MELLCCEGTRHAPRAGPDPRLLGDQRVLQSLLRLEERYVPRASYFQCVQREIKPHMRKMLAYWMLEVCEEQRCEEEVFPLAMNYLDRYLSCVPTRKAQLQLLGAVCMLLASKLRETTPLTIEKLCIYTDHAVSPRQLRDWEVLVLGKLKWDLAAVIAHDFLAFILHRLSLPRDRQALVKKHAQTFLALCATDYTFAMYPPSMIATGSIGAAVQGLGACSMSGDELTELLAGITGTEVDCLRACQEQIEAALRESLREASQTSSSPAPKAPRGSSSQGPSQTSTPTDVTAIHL
Chain of MET (P08581 25-1390): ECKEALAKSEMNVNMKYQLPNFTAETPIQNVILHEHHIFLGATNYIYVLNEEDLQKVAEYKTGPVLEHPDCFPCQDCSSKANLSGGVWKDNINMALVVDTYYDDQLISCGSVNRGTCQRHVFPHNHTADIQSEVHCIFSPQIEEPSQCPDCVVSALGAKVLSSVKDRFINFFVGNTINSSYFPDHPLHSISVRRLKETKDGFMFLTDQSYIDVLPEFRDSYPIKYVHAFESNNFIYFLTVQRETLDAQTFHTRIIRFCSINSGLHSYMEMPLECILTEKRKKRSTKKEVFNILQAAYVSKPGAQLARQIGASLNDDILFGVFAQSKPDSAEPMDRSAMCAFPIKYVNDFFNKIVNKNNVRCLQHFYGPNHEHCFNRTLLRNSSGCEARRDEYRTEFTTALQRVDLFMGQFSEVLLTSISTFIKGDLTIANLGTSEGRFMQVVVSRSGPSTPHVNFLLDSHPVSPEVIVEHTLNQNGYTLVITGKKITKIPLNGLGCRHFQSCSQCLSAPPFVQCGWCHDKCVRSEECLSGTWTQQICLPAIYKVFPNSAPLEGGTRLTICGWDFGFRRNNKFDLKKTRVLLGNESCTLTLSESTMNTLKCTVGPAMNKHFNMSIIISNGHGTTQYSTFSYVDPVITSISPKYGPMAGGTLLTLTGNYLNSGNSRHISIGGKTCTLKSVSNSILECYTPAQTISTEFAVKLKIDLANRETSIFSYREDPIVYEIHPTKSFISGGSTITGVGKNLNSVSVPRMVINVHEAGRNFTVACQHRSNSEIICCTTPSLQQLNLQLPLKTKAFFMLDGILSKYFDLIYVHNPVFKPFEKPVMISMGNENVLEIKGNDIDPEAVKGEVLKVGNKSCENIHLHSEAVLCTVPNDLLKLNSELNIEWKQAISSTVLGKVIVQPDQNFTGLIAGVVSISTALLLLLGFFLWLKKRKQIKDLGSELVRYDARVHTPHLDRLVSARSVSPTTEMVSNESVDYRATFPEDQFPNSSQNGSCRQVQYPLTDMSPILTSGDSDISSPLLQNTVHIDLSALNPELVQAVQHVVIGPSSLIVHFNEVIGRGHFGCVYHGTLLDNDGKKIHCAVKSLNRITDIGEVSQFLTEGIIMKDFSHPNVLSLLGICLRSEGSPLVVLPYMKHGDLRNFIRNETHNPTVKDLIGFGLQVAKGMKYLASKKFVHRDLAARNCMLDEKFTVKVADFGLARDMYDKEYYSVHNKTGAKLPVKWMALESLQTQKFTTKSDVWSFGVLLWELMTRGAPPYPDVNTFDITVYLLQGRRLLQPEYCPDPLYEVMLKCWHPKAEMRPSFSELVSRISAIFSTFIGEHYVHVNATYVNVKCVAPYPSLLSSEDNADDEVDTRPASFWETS

Turning to `CNc1c(-c2ccc(C(=O)N3CCC(N4CCOCC4)CC3)cc2)cnc2[nH]cc(Cl)c12` [Compound 96, (4-(3-chloro-4-(methylamino)-1H-pyrrolo[2,3-b]pyridin-5-yl)phenyl)(4-morpholinopiperidin-1-yl)methanone], the remaining binding at 1 µM in experiment [1] was found to be 94%; on MET, 84%; at CDK4-cyclinD3, 100%; at MAP4K4, 19%; on CLK3, 98%; at PIP5K2B it was 4.9%. Further, the remaining binding at 1 µM on GRK1 came out at 63%; at BRK, 78%; at BMPR2 it was 53%; on MEK2, 19%.

On to `O=C(c1ccc(-c2cnc3[nH]cc(Cl)c3c2NC2CCCC2)cc1)N1CCC(N2CCOCC2)CC1` [Compound 101, (4-(3-chloro-4-(cyclopentylamino)-1H-pyrrolo[2,3-b]pyridin-5-yl)phenyl)(4-morpholinopiperidin-1-yl)methanone], for which the remaining binding at 1 µM in experiment [1] was 47%; at MET it was 16%; at CDK4-cyclinD3, 99%; at MAP4K4, 78%; at CLK3, 97%; at PIP5K2B, 12%. Besides, the remaining binding at 1 µM at GRK1 amounted to 84%; on BRK, 86%; on BMPR2 it was 98%; at MEK2, 87%.

For the compound `CNc1c(-c2cnn([C@H]3CCN(C(C)=O)C[C@@H]3F)c2)cnc2[nH]cc(Cl)c12` [Compound 77, 1-((3S,4S)-4-(4-(3-chloro-4-(methylamino)-1H-pyrrolo[2,3-b]pyridin-5-yl)-1H-pyrazol-1-yl)-3-fluoropiperidin-1-yl)ethan-1-one], the remaining binding at 1 µM in [1] is 57%; on MET, 63%; at CDK4-cyclinD3, 98%; at MAP4K4, 58%; at CLK3, 88%; at PIP5K2B, 3.4%. Moreover, the remaining binding at 1 µM came to 60% on GRK1, 95% on BRK, 40% at BMPR2 and 31% on MEK2.
